# Patent publication US20130184462A1, “METHOD FOR PREDICTING AND MODELING ANTI-PSYCHOTIC ACTIVITY USING VIRTUAL SCREENING MODEL” (COUNCIL OF SCIENTIFIC & INDUSTRIAL RESEARCH, priority 2010, published 2013)
# Tested on: amphetamine induced hyperactivity mice model
# Assay: Amphetamine induced hyperactivity mouse model
# Details: in-vitro and in-vivo evaluation, FIGS. 3 and 4
# Description: The animals were housed in plastic polypropylene cages under standard animal house conditions with a 12 hours light/dark cycle and temperature of 25±2° C.
# The mice randomly grouped in batches of seven animals per group. The basal motor activity (distance traveled) of each mouse was recorded individually using automated activity monitor (TSE, Germany). After basal activity recording, a group of seven animals were challenged with amphetamine [5.5 mg/kg, intra peritoneal (i.p) dissolved in normal saline]. After 30 min. amphetamine injection, motor activity was recorded for individual animal for 5 min.
# The difference in motor activity as indicated by distance traveled in animals with amphetamine alone treated and animals with samples plus amphetamine challenge was recorded as inhibition in hyper activity caused by amphetamine and data presented as percent inhibition in amphetamine induced hyperactivity.
row,Compound,antipsychotic activity in-vitro and in-vivo
1,"COC(=O)C1C(OC(C)=O)CCC2CN3CCc4c([nH]c5ccccc45)C3CC21 (stereo not drawn) [K001A, 17-O-acetyl α-yohimbine]",potential antipsychotic activity
2,"COC(=O)C1C(OC(=O)c2cccc([N+](=O)[O-])c2)CCC2CN3CCc4c([nH]c5ccccc45)C3CC21 (stereo not drawn) [K001C, 17-O-(3″)-nitrobenzoyl α-yohimbine]",potential antipsychotic activity
3,"COC(=O)C1C(OC(=O)c2ccc([N+](=O)[O-])cc2)CCC2CN3CCc4c([nH]c5ccccc45)C3CC21 (stereo not drawn) [K001E, 17-O-(4″)-nitrobenzoyl-α-yohimbine]",potential antipsychotic activity
4,"COC(=O)C1C(OC(=O)C=Cc2ccccc2)CCC2CN3CCc4c([nH]c5ccccc45)C3CC21 (stereo not drawn) [K001F, 17-O-cinnamoyl α-yohimbine]",potential antipsychotic activity
